Experimental data as given in patent publication US20260248784A1, “BTK Degrader and Use Thereof” (JIANGSU VCARE PHARMATECH CO., LTD., priority 2023, published 2026).
Read-outs that look alike come from different tables or passages of the source.

Tested on: mino cells
Test: Activity test in Mino cells (CCK8 proliferation inhibition)
Type: cell-based
Details: 3 days, read-out: Cell inhibition IC50
Experimental: Cell culture: mino cells (culture conditions: RPMI1640 medium+15% FBS, 37° C., 5% CO2). Cell plating: The cells subcultured into the logarithmic growth phase were collected and transferred into a centrifuge tube, and centrifuged at 800 rpm for 5 min. The cells were resuspended in complete medium and counted. The cells were diluted and adjusted to a final concentration of 200000 cells/mL. The cells were then seeded into a 96-well plate with 100 μL per well. Cell administration: Each group of drug solutions was added into the 96-well plate, 100 μL per well, n=3 for each drug concentration. Meanwhile, negative wells (n=6) and blank wells (n=3) were set up. The 96-well plate was incubated in the incubator for further 3 days. CCK8 reagent was added to the 96-well plate, 20 μL per well, and then the plate was placed in the incubator for further 4 h. The absorbance of the solution was measured at a wavelength of 450 nm using an enzyme reader. The proliferation inhibition rate was calculated and the half inhibitory concentration IC50 value was calculated.

Row | Structure (SMILES) | IC50 (Homo sapiens, 72 h) | IC50
1 | COc1ccc(F)cc1C(=O)NCc1ccc(-c2nn(-c3ccc(N4CCN(CC5CCN(c6ccc(N7CCC(=O)NC7=O)cc6)CC5)CC4)nc3)c3ncnc(N)c23)cc1 [Compound I-3, N-(4-(4-amino-1-(6-(4-((1-(4-(2,4-dioxotetrahydropyrimidin-1(2H)-yl)phenyl)piperidin-4-yl)methyl)piperazin-1-yl)pyridin-3-yl)-1H-pyrazolo[3,4-d]pyrimidin-3-yl)benzyl)-5-fluoro-2-methoxybenzamide] | 16 nM | –
2 | COc1ccc(F)cc1C(=O)NCc1ccc(-c2nn(-c3ccc(N4CCN(CC5CCN(c6ccc(N7CCC(=O)NC7=O)c(C)c6)CC5)CC4)nc3)c3ncnc(N)c23)cc1C [Compound I-4] | – | 62 nM
3 | COc1ccc(F)cc1C(=O)NCc1ccc(-c2nn(-c3ccc(C4CCN(CC5CCN(c6ccc(N7CCC(=O)NC7=O)c(C)c6)CC5)CC4)cc3)c3ncnc(N)c23)cc1 [Compound I-5, N-(4-(4-amino-1-(4-(1-((1-(4-(2,4-dioxotetrahydropyrimidin-1(2H)-yl)-3-methylphenyl)piperidin-4-yl)methyl)piperidinyl)phenyl)-1H-pyrazolo[3,4-d]pyrimidin-3-yl)benzyl)-5-fluoro-2-methoxybenzamide] | 84 nM | –
4 | COc1ccc(F)cc1C(=O)NCc1ccc(-c2nn(-c3ccc(C4CCN(CC5CCN(c6ccc(N7CCC(=O)NC7=O)cc6)CC5)CC4)cc3)c3ncnc(N)c23)cc1 [Compound I-6, N-(4-(4-amino-1-(4-(1-((1-(4-(2,4-dioxotetrahydropyrimidin-1(2H)-yl)phenyl)piperidin-4-yl)methyl)piperidinyl)phenyl)-1H-pyrazolo[3,4-d]pyrimidin-3-yl)benzyl)-5-fluoro-2-methoxybenzamide] | 16 nM | –
5 | COc1ccc(F)cc1C(=O)NCc1ccc(-c2nn(-c3ccc(C4CCN(CC5CCN(c6ccc(N7CCC(=O)NC7=O)c(C)c6)CC5)CC4)nc3)c3ncnc(N)c23)cc1 [Compound I-7, N-(4-(4-amino-1-(6-(1-((1-(4-(2,4-dioxotetrahydropyrimidin-1(2H)-yl)-3-methylphenyl)piperidin-4-yl)methyl)piperidin-4-yl)pyridin-3-yl)-1H-pyrazolo[3,4-d]pyrimidin-3-yl)benzyl)-5-fluoro-2-methoxybenzamide] | < 50 nM | –
6 | COc1ccc(F)cc1C(=O)NCc1ccc(-c2nn(-c3ccc(N4CCN(CC5CCN(c6ccc(N7CCC(=O)NC7=O)c(C)c6)CC5)CC4)cc3)c(N)c2C(N)=O)cc1 [Compound I-8] | < 25 nM | –
7 | COc1ccc(F)cc1C(=O)NCc1ccc(-c2nn(-c3ccc(N4CCN(CC5CCN(c6ccc(N7CCC(=O)NC7=O)c(C)c6)CC5)CC4)cc3)c3ncnc(N)c23)cc1 [Compound I-9] | < 25 nM | –
8 | COc1ccc(F)cc1C(=O)NCc1ccc(-c2nn(-c3ccc(C4CCN(CC5CCN(c6ccc(N7CCC(=O)NC7=O)c(C)c6)CC5)CC4)cc3)c(N)c2C(N)=O)cc1 [Compound I-11, 5-amino-1-(4-(1-(1-(4-(2,4-dioxotetrahydropyrimidin-1(2H)-yl)-3-methylphenyl)piperidin-4-yl)methyl)piperidin-4-yl)phenyl)-3-(4-(((5-fluoro-2-methoxybenzamido)methyl)phenyl)-1H-pyrazole-4-carboxamide] | < 25 nM | –
9 | COc1ccc(F)cc1C(=O)NCc1ccc(-c2nn(-c3ccc(C4CCN(CC5CCN(c6ccc(N7CCC(=O)NC7=O)c(C)c6)CC5)CC4)nc3)c(N)c2C(N)=O)cc1 [Compound I-12] | < 25 nM | –
10 | COc1ccc(F)cc1C(=O)NCc1ccc(-c2nn(-c3ccc(C4CCN(CC5CCN(c6ccc(C7CCC(=O)NC7=O)cc6)CC5)CC4)nc3)c3ncnc(N)c23)cc1 (stereo not drawn) [Compound I-24] | < 100 nM | –
11 | COc1ccc(F)cc1C(=O)NCc1ccc(-c2nc(-c3ccc(N4CCN(CC5CCN(c6ccc(N7CCC(=O)NC7=O)c(C)c6)CC5)CC4)nc3)n3ccnc(N)c23)cc1 [Compound I-30] | < 50 nM | –
12 | COc1ccc(F)cc1C(=O)NCc1ccc(-c2nn(-c3ccc(N4CCN(CC5CCN(c6ccc(N7CCC(=O)NC7=O)c(C)c6)CC5)C[C@H]4C)nc3)c3ncnc(N)c23)cc1 [Compound I-41] | < 25 nM | –
13 | COc1ccc(F)cc1C(=O)NCc1ccc(-c2nn(-c3ccc(N4CCC(CN5CCN(c6ccc(N7CCC(=O)NC7=O)c(C)c6)CC5)CC4)cc3)c3ncnc(N)c23)cc1 [Compound I-42] | < 25 nM | –
14 | COc1ccc(F)cc1C(=O)NCc1ccc(-c2nn(-c3ccc(N4CCN(CC5CCN(c6ccc(N7CCC(=O)NC7=O)c(C)c6)CC5)CC4)nc3)c3ncnc(N)c23)c(F)c1F [Compound I-43] | < 50 nM | –
15 | COc1ccc(F)cc1C(=O)NCc1ccc(-c2nn(-c3ccc(C4CCN(CC5CCN(c6ccc(N7CCC(=O)NC7=O)c(C)c6)CC5)CC4)cc3)c3ncnc(N)c23)cc1F [Compound I-44, N-(4-(4-amino-1-(4-(1-((1-(4-(2,4-dioxotetrahydropyrimidin-1(2H)-yl)-3-methylphenyl)piperidin-4-yl)methyl)piperidinyl)phenyl)-1H-pyrazolo[3,4-d]pyrimidin-3-yl)-2-fluorobenzyl)-5-fluoro-2-methoxybenzamide] | < 25 nM | –
16 | COc1ccc(F)cc1C(=O)NCc1ccc(-c2nc(-c3ccc(N4CCN(CC5CCN(c6ccc(N7CCC(=O)NC7=O)c(C)c6)CC5)CC4)cc3)n3ccnc(N)c23)cc1F [Compound I-45] | < 50 nM | –
17 | COc1ccc(F)cc1C(=O)NCc1ccc(-c2nn(-c3ccc(N4CCN(CC5CCN(c6ccc(N7CCC(=O)NC7=O)c(C)c6)CC5)CC4)cc3)c3ccnc(N)c23)cc1 [Compound I-46] | < 100 nM | –
18 | COc1ccc(F)cc1C(=O)NCc1ccc(-c2nc(-c3ccc(N4CCN(CC5CCN(c6ccc(N7CCC(=O)NC7=O)c(C)c6)CC5)CC4)cc3)n3ccnc(N)c23)c(F)c1 [Compound I-47] | < 25 nM | –
19 | COc1ccc(F)cc1C(=O)NCc1ccc(-n2c(=O)n(-c3ccc(N4CCN(CC5CCN(c6ccc(N7CCC(=O)NC7=O)c(C)c6)CC5)CC4)cc3)c3ccnc(N)c32)cc1 [Compound I-48] | < 25 nM | –
20 | CCc1cc(-c2nc(-c3ccc(CNC(=O)c4cc(F)ccc4OC)cc3)c3c(N)nccn23)ccc1N1CCN(CC2CCN(c3ccc(N4CCC(=O)NC4=O)c(C)c3)CC2)CC1 [Compound I-49] | < 100 nM | –
21 | COc1ccc(F)cc1C(=O)NCc1ccc(-c2nc(-c3ccc(C4=CCN(CC5CCN(c6ccc(N7CCC(=O)NC7=O)c(C)c6)CC5)CC4)cc3)n3ccnc(N)c23)cc1 [Compound I-50] | < 25 nM | –
22 | COc1ccc(F)cc1C(=O)NCc1ccc(-c2nc(-c3ccc(N4CCN(CC5CCN(c6ccc(N7CCC(=O)NC7=O)c(C)c6)CC5)CC4)c(OC)c3)n3ccnc(N)c23)cc1 [Compound I-51] | < 25 nM | –
23 | COc1ccc(F)cc1C(=O)NCc1ccc(-n2c(=O)n(-c3ccc(N4CCN(CC5CCN(c6ccc(N7CCC(=O)NC7=O)c(C)c6)CC5)CC4)nc3)c3ccnc(N)c32)cc1 [Compound I-52, N-(4-(4-amino-1-(6-(4-((1-(4-(2,4-dioxotetrahydropyrimidin-1(2H)-yl)-3-methylphenyl)piperidin-4-yl)methyl)piperazin-1-yl)pyridin-3-yl)-2-oxo-1,2-dihydro-3H-imidazo[4,5-c]pyridin-3-yl)benzyl)-5-fluoro-2-methoxybenzamide] | < 50 nM | –
24 | COc1ccc(F)cc1C(=O)NCc1ccc(-c2nc(-c3ccc(N4CC5CC(C4)N5CC4CCN(c5ccc(N6CCC(=O)NC6=O)c(C)c5)CC4)cc3)n3ccnc(N)c23)cc1 [Compound I-53] | < 50 nM | –
25 | Cc1cc(N2CCC(CN3CCN(c4ccc(-c5nc(-c6ccc(Oc7ccccc7)cc6)c6c(N)nccn56)cn4)CC3)CC2)ccc1N1CCC(=O)NC1=O [Compound I-54, 1-(4-(4-((4-(5-(8-amino-1-(4-phenoxyphenyl)imidazo[1,5-a]pyrazin-3-yl)pyridin-2-yl)piperazin-1-yl)methyl)piperidin-1-yl)-2-methylphenyl)dihydropyrimidine-2,4(1H,3H)-dione] | < 50 nM | –
26 | Cc1cc(N2CCC(CN3CCN(c4ccc(-n5nc(-c6ccc(Oc7ccccc7)cc6)c6c(N)ncnc65)cc4)CC3)CC2)ccc1N1CCC(=O)NC1=O [Compound I-55] | < 100 nM | –
27 | COc1ccc(F)cc1C(=O)NCc1ccc(-c2nn(-c3ccc(N4CCN(CC5CCN(c6ccc7c(c6)CN(C6CCC(=O)NC6=O)C7=O)CC5)CC4)nc3)c3ncnc(N)c23)cc1 (stereo not drawn) [II-1] | 4 nM | –
28 | COc1ccc(F)cc1C(=O)NCc1ccc(-c2nn(-c3ccc(N4CCN(CC5CCN(c6ccc7c(c6)CN(C6CCC(=O)NC6=O)C7=O)CC5)CC4)nc3)c3ncnc(N)c23)cc1C (stereo not drawn) [II-2, N-(4-(4-amino-1-(6-(4-((1-(2-(2,6-dioxopiperidin-3-yl)-1-oxoisoindolin-5-yl)piperidin-4-yl)methyl)piperazin-1-yl)pyridin-3-yl)-1H-pyrazolo[3,4-d]pyrimidin-3-yl)-2-methylbenzyl)-5-fluoro-2-methoxybenzamide] | 17 nM | –
29 | COc1ccc(F)cc1C(=O)NCc1ccc(-c2nn(-c3ccc(N4CCN(CC5CCN(c6ccc7c(c6)C(=O)N(C6CCC(=O)NC6=O)C7=O)CC5)CC4)nc3)c3ncnc(N)c23)cc1 (stereo not drawn) [II-3, N-(4-4-amino-1-(6-(4-(1-(2,6-dioxopiperidin-3-yl)-1,3-dioxoisoindolin-5-ylpiperidin-4-yl)methylpiperazin-1-ylpyridin-3-yl)-1H-pyrazolo[3,4-d]pyrimidin-3-yl)benzyl)-5-fluoro-2-methoxybenzamide] | 17 nM | –
30 | COc1ccc(F)cc1C(=O)NCc1ccc(-c2nn(-c3ccc(N4CCC(CN5CCN(c6ccc7c(c6)C(=O)N(C6CCC(=O)NC6=O)C7)CC5)CC4)nc3)c3ncnc(N)c23)cc1 (stereo not drawn) [II-4, N-(4-(4-amino-1-(6-(4-((4-(2-(2,6-dioxopiperidin-3-yl)-3-oxoisoindolin-5-yl)piperazin-1-yl)methyl)piperidin-1-yl)pyridin-3-yl)-1H-pyrazolo[3,4-d]pyrimidin-3-yl)benzyl)-5-fluoro-2-methoxybenzamide] | 12 nM | –
